Where a chain is given by its changes, count along the chain named. pIC50: −log10 of the molar value.

The first test concerns the target T1, AR protein (Homo sapiens, UniProt P10275, T878A).
T1 construct: degradation activity of the compounds disclosed in the present disclosure on AR protein in LNCaP cells; host or cells: LNCaP FGC
T1 sequence (P10275 1-920 T878A): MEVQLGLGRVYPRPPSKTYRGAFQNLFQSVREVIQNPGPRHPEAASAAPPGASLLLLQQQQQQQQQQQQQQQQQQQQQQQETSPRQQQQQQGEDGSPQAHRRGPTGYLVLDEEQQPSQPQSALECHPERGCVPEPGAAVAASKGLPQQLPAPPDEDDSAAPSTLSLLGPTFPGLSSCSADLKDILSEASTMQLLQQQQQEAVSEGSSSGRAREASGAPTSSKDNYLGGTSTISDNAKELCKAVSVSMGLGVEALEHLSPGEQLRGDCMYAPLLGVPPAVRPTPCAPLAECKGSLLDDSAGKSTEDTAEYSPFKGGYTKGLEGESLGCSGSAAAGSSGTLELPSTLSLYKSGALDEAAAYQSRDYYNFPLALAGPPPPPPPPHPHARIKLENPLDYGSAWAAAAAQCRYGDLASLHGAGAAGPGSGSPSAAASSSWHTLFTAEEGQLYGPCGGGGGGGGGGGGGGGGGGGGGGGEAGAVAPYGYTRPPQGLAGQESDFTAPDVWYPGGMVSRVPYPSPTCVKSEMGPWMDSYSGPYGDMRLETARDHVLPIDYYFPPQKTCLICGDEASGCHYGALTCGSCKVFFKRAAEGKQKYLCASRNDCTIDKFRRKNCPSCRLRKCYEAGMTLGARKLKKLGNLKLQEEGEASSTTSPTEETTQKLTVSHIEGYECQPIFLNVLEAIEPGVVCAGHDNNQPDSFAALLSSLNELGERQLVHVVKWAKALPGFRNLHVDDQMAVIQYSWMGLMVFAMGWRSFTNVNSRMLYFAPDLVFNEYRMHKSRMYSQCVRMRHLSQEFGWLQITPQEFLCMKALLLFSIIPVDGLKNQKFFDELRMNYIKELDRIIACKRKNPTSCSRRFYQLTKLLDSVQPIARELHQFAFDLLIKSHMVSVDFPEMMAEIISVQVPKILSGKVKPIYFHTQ
Briefly: Degradation of AR protein in LNCaP cells (Western blot). Format: cell-based. The note with it: LNCaP cells, compound 10 nM, 8 hours, Western blot grayscale, GAPDH internal reference; read-out: Degradation rates of the AR protein in LNCaP cells, 10 nM (%). Put shortly:
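Percent AR degradation was derived from GAPDH-normalised Western blot band intensities (infrared detection) in LNCaP lysates.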
Background: In western blotting, separated proteins are transferred to a membrane and probed.
With `CCC1(CN2CCC3(CC2)COc2c3ccc3c2C(=O)N(C2CCC(=O)NC2=O)C3=O)CCN(c2ccc(C(=O)N[C@H]3C(C)(C)[C@H](Oc4ccc(C#N)c(OC)c4)C3(C)C)cc2)CC1` (stereo partly drawn) [Compound 286], the inhibition at 0.01 µM was 22%.

For `COc1cc(O[C@H]2C(C)(C)[C@H](NC(=O)c3ccc(N4CCC(C)(CN5CCC6(CCc7cc8c(cc7O6)C(=O)N(C6CCC(=O)NC6=O)C8=O)CC5)CC4)cc3)C2(C)C)ccc1C#N` (stereo partly drawn) [Compound 287], the inhibition at 0.01 µM is 28%.

As for `COc1cc(O[C@H]2C(C)(C)[C@H](NC(=O)c3ccc(N4CCC(C)(CN5CCC6(CC5)COc5cc7c(cc56)C(=O)N(C5CCC(=O)NC5=O)C7=O)CC4)cc3)C2(C)C)ccc1C#N` (stereo partly drawn) [Compound 288], the inhibition at 0.01 µM is -18%.

Still in this test, the particulars now being: LNCaP cells, compound 100 nM, 8 hours, Western blot grayscale, GAPDH internal reference; read-out: Degradation rates of the AR protein in LNCaP cells, 100 nM (%).
Regarding `CCC1(CN2CCC3(CC2)COc2c3ccc3c2C(=O)N(C2CCC(=O)NC2=O)C3=O)CCN(c2ccc(C(=O)N[C@H]3C(C)(C)[C@H](Oc4ccc(C#N)c(OC)c4)C3(C)C)cc2)CC1` (stereo partly drawn) [Compound 286], the inhibition at 0.1 µM came out at 34%.

`COc1cc(O[C@H]2C(C)(C)[C@H](NC(=O)c3ccc(N4CCC(C)(CN5CCC6(CCc7cc8c(cc7O6)C(=O)N(C6CCC(=O)NC6=O)C8=O)CC5)CC4)cc3)C2(C)C)ccc1C#N` (stereo partly drawn) [Compound 287]: the inhibition at 0.1 µM was 51%.

As to `COc1cc(O[C@H]2C(C)(C)[C@H](NC(=O)c3ccc(N4CCC(C)(CN5CCC6(CC5)COc5cc7c(cc56)C(=O)N(C5CCC(=O)NC5=O)C7=O)CC4)cc3)C2(C)C)ccc1C#N` (stereo partly drawn) [Compound 288], the inhibition at 0.1 µM was determined as 18%.

Another test concerns the target T2, AR protein (Homo sapiens, UniProt P10275).
T2 construct: degradation activity of the compounds disclosed in the present disclosure on AR protein in VCaP cells; host or cells: VCaP
T2 sequence (P10275 1-920): T1 sequence (P10275 1-920 T878A) with A878T
Kind of test: Degradation of AR protein in VCaP cells (Western blot). The class given is cell-based. The note with it: compound at 10 nM, 8 hours, read-out: Degradation rate of the AR protein in VCaP cells, 10 nM (%). Put shortly:
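Western blot readout: AR band grayscale normalised to GAPDH, used to derive degradation rate. Lysates came from VCaP cells exposed to compound for 8 h, with solvent controls run in parallel.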
With `CCC1(CN2CCC3(CC2)COc2c3ccc3c2C(=O)N(C2CCC(=O)NC2=O)C3=O)CCN(c2ccc(C(=O)N[C@H]3C(C)(C)[C@H](Oc4ccc(C#N)c(OC)c4)C3(C)C)cc2)CC1` (stereo partly drawn) [Compound 286], the inhibition at 0.01 µM was -33%.

In the case of `COc1cc(O[C@H]2C(C)(C)[C@H](NC(=O)c3ccc(N4CCC(C)(CN5CCC6(CCc7cc8c(cc7O6)C(=O)N(C6CCC(=O)NC6=O)C8=O)CC5)CC4)cc3)C2(C)C)ccc1C#N` (stereo partly drawn) [Compound 287], the inhibition at 0.01 µM is -31%.

Turning to `COc1cc(O[C@H]2C(C)(C)[C@H](NC(=O)c3ccc(N4CCC(C)(CN5CCC6(CC5)COc5cc7c(cc56)C(=O)N(C5CCC(=O)NC5=O)C7=O)CC4)cc3)C2(C)C)ccc1C#N` (stereo partly drawn) [Compound 288], the inhibition at 0.01 µM turned out to be 7%.

The test is the same for the next values; noted with them: compound at 100 nM, 8 hours, read-out: Degradation rate of the AR protein in VCaP cells, 100 nM (%).
In the case of `CCC1(CN2CCC3(CC2)COc2c3ccc3c2C(=O)N(C2CCC(=O)NC2=O)C3=O)CCN(c2ccc(C(=O)N[C@H]3C(C)(C)[C@H](Oc4ccc(C#N)c(OC)c4)C3(C)C)cc2)CC1` (stereo partly drawn) [Compound 286], the inhibition at 0.1 µM was -9%.

On to `COc1cc(O[C@H]2C(C)(C)[C@H](NC(=O)c3ccc(N4CCC(C)(CN5CCC6(CCc7cc8c(cc7O6)C(=O)N(C6CCC(=O)NC6=O)C8=O)CC5)CC4)cc3)C2(C)C)ccc1C#N` (stereo partly drawn) [Compound 287], for which the inhibition at 0.1 µM came out at 13%.

As to `COc1cc(O[C@H]2C(C)(C)[C@H](NC(=O)c3ccc(N4CCC(C)(CN5CCC6(CC5)COc5cc7c(cc56)C(=O)N(C5CCC(=O)NC5=O)C7=O)CC4)cc3)C2(C)C)ccc1C#N` (stereo partly drawn) [Compound 288], the inhibition at 0.1 µM came to 41%.

The next test concerns LNCaP FGC cells. Kind of test: Inhibition of proliferation of LNCaP cells (WST-8). The class given is cell-based. Particulars: Homo sapiens, LNCaP, 96 h, LNCaP FGC cells, 96 hours, WST-8 absorbance at 450 nm; read-out: IC50 for inhibiting the proliferation of LNCaP cells. As to the method:
The cells were cultured in a cell culture incubator with 5% CO2 at 37° C. overnight. […] On the sixth day, 96 well plates were taken out, and 20 μL of WST-8 (Beytime, C0040) reagent was added to each well.
A general note: Tetrazolium dyes change colour on reduction, which living cells bring about.
Take `CCC1(CN2CCC3(CC2)COc2c3ccc3c2C(=O)N(C2CCC(=O)NC2=O)C3=O)CCN(c2ccc(C(=O)N[C@H]3C(C)(C)[C@H](Oc4ccc(C#N)c(OC)c4)C3(C)C)cc2)CC1` (stereo partly drawn) [Compound 286]: the pIC50 is 5.43.

As to `COc1cc(O[C@H]2C(C)(C)[C@H](NC(=O)c3ccc(N4CCC(C)(CN5CCC6(CCc7cc8c(cc7O6)C(=O)N(C6CCC(=O)NC6=O)C8=O)CC5)CC4)cc3)C2(C)C)ccc1C#N` (stereo partly drawn) [Compound 287], the pIC50 is 4.15.

`COc1cc(O[C@H]2C(C)(C)[C@H](NC(=O)c3ccc(N4CCC(C)(CN5CCC6(CC5)COc5cc7c(cc56)C(=O)N(C5CCC(=O)NC5=O)C7=O)CC4)cc3)C2(C)C)ccc1C#N` (stereo partly drawn) [Compound 288]: the pIC50 is 4.18.

Another test deals with VCaP cells. Kind of test: Inhibition of proliferation of VCaP cells (WST-8). The class given is cell-based. The note with it: Homo sapiens; VCaP cells, 168 hours, WST-8 absorbance at 450 nm; read-out: IC50 for inhibiting the proliferation of VCaP cells. A digest of the protocol: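 Proliferation was read by WST-8 on day nine. Cells were VCaP FGC, seeded at 15000 cells per well in 10% FBS DMEM and kept at 37° C with 5% CO2.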
On to `CCC1(CN2CCC3(CC2)COc2c3ccc3c2C(=O)N(C2CCC(=O)NC2=O)C3=O)CCN(c2ccc(C(=O)N[C@H]3C(C)(C)[C@H](Oc4ccc(C#N)c(OC)c4)C3(C)C)cc2)CC1` (stereo partly drawn) [Compound 286], for which the pIC50 was 7.24.

In the case of `COc1cc(O[C@H]2C(C)(C)[C@H](NC(=O)c3ccc(N4CCC(C)(CN5CCC6(CCc7cc8c(cc7O6)C(=O)N(C6CCC(=O)NC6=O)C8=O)CC5)CC4)cc3)C2(C)C)ccc1C#N` (stereo partly drawn) [Compound 287], the pIC50 was 6.51.

For `COc1cc(O[C@H]2C(C)(C)[C@H](NC(=O)c3ccc(N4CCC(C)(CN5CCC6(CC5)COc5cc7c(cc56)C(=O)N(C5CCC(=O)NC5=O)C7=O)CC4)cc3)C2(C)C)ccc1C#N` (stereo partly drawn) [Compound 288], the pIC50 was 7.13.

Values taken from patent US20260234157A1, “COMPOUND AND METHOD FOR TARGETED DEGRADATION OF ANDROGEN RECEPTOR” (Gan & Lee Pharmaceuticals Co., Ltd., priority 2023, published 2026).
